Measured values from patent US20080200526A1, “Composition for the Prevention and Treatment of Allergic Inflammatory Disease” (priority 2004, published 2008).

Tests used:
asthma = settings: clinical test, Lilly; Evans D J, Thorax 1996; cited from earlier work
bronchial asthma = settings: Sakurada T. et al., Eur J Pharmacol 1999, cited from earlier work
[1] = Change in body weight gain, mouse model of ovalbumin-induced asthma; type: in vivo; settings: mean ± SD, in g (unit assumed)
Experimental: (§1) The benzamidine compound of Chemical Formula 1 was assayed for therapeutic effect on allergic inflammation in mouse models of ovalbumin-induced asthma. Starting at the sensitization with ovalbumin, the administration of the benzamidine compound was for 18 consecutive days. The experimental animals were re-exposed to ovalbumin 15 days after the sensitization and then sacrificed 3 days after the re-exposure. Changes in lung weight, cellular components of peripheral blood and bronchoalveolar lavage fluid, and lung histopathology were observed.
(§2) A total of 20 female C57BL/6 mice (6-week-old, BioGenomics, Korea) was adapted to a laboratory environment for 6 days before being used in earnest experiments. While being housed at a density of five in a plastic cage, the experimental animals were bred in a breeding room with controlled temperature (20 to 25° C.) and humidity (30 to 35%). Under light-dark cycles of 12 hours, mice were allowed to have free access to feedstuff and tap water. While asthma was induced in 15 mice by ovalbumin, 5 mice were used as a non-treated group.
(§3) 100 mg and 200 mg of N-hydroxy-4-{5-[4-(5-isopropyl-2-methyl-1,3-thiazol-4-yl)phenoxy]pentoxy}-benzamidine were completely dissolved in 5 ml of sterilized distilled water. The benzamidine compound in the solutions was orally administered at doses of 100 mg and 200 mg per kg of body weight once a day from the day of the sensitization with ovalbumin. The control group was administered with equal volumes of sterilized distilled water in the same manner.
(§4) A solution of 200 μg of ovalbumin (Grade V; Sigma, St. Louis, Mo., USA) and 180 mg of aluminum hydroxide (Al(OH)3, dried powder gel; Aldrich, Milwaukee, USA) in 4 ml of physiological saline was allowed to stand at 4° C. overnight and was administered to the experimental animals (200 μl, abdominal injection) for sensitization. As for the non-treated group, a solution of only aluminum hydroxide in saline was injected. 15 days after sensitization, a 1.5% ovalbumin solution was sprayed in air using a nebulizer, followed by exposing the experimental animals to the spray for 10 min to induce asthma therein. The non-treated group was exposed only to saline in the same manner. All the experimental animals were sacrificed 3 days after the exposure.
All the experimental animals were measured for body weight 1, 7, 14, 16 and 17 days after administration. In order to reduce difference among individuals due to feedstuff intake, all experimental animals were starved for 18 hours or more on the beginning day of the administration and on the sacrificing day before weight measurement. To minimize the difference of change in body weight of individual animals, body weight gains during time periods of the sensitization, the asthma induction after exposure and the whole experiment were calculated.

[2] = tested on: mouse models of ovalbumin-induced asthma; assay: Lung weight, mouse model of ovalbumin-induced asthma; type: in vivo; settings: 18 days, mean ± SD; for Lung Relative Wt.: percentage of body weight
Experimental: as §1, §2, §3, §4
On the final day of experiment, the lungs were separated from adjacent organs. The removed lungs were weighed in grams. To minimize errors due to the difference in body weight among individual animals, the relative weight of the lungs was calculated as a percentage of body weight using the following mathematic formula 1.

[3] = tested on: mouse models of ovalbumin-induced asthma; assay: Total count of leukocytes in blood and fractional calculation of leukocytes; type: in vivo; settings: 18 days; for Total leukocytes in blood: mean ± SD; for Basophils in blood / Eosinophils in blood / Lymphocytes in blood / Monocytes in blood / Neutrophils in blood: portion per 200 leukocytes
Experimental: as §1, §2, §3, §4
On the final day of experiment, all the experimental animals were etherized and underwent laparotomy to expose the abdominal vena cava, from which 1 ml of blood was then taken. Using a hemocytometer, a blood sample was measured for total leukocyte counts in a ×10^3/1 mm^3 unit. Immediately after blood collection, the blood sample was smeared on slide glasses, fixed with methanol, and stained with Giemsa. And then, lymphocytes, eosinophils, neutrophils, monocytes, and basophils were calculated for their respective portions per 200 leukocytes and are represented as percentages in Table 3, below.

[4] = tested on: mouse models of ovalbumin-induced asthma; assay: Fractional count of cellular components of bronchoalveolar lavage fluid; type: in vivo; settings: 18 days, mean ± SD
Experimental: as §1, §2, §3, §4
On the final day of experiment, secretions present in bronchi and alveola were examined for cytological constitution. To this end, after being etherized, the experimental animals were operated to open the cervical region and the thorax. The jugular vein was allowed to bleed, followed by endotracheal intubation. 3 ml of phosphate buffered saline was injected twice through the tube and the thorax was massaged for 30 sec to obtain cell suspension from the lungs. The cell suspension was centrifuged at 3000 rpm for 30 min and resuspended in DPBS (Gibco BRL, NY, USA). After the cell suspension was smeared on a slide glass, the cells were stained with Giemsa. A total count of the whole cells present in the smear and fractional counts of neutrophils, eosinophils, basophils, macrophages, and epithelioid cells were measured and are given in Table 4, below.

[5] = tested on: mouse models of ovalbumin-induced asthma; assay: Lung histopathological observation and histomorphology; type: in vivo; settings: for Alveolar Area (proportion of alveolar lumen in lung tissue) / Counts of goblet Cells Brochiole / Counts of goblet Cells Bronchus / Wall Thick. Brochiole / Wall Thick. Bronchus: 18 days, mean ± SD
Experimental: as §1, §2, §3, §4
The lungs removed after asthma induction were fixed in 10% neutral formalin and embedded in paraffin. The paraffin-embedded tissue was sliced at a thickness of 3 to 4 μm, stained with hematoxylin-eosin or Masson's trichrome and observed through an optical microscope.
From the lung tissue specimen prepared above, alveolar areas (proportion of alveolar lumen in lung tissue), populations of the goblet cells present in the bronchus and the bronchiole, and wall thicknesses of the bronchus and the bronchiole were examined using an analysis Image processing system (SIS Germany). The alveolar areas are represented as percentages, the populations of the goblets cells in the bronchus and bronchiole as counts per 1,000 cells, and the wall thickness of the bronchus and bronchiole in μm in Table 5.

SMILES: CCCc1c(OCCCOc2cc(O)c(-c3ccc(F)cc3)cc2CC)cccc1Oc1ccccc1C(=O)O [LY293111]
- Effect in treating asthma (asthma): ineffective in treating asthma

SMILES: COc1ccc(/C=C/CCCCOc2cccc(OCCCCC(=O)O)c2CCC(=O)O)cc1 [ONO-4057]
- Effect on bronchial asthma, in combination (bronchial asthma; in combination with the cysteinyl leukotriene receptor antagonist Zafirlukast): medicinal effect on bronchial asthma
- Effect on bronchial asthma, used alone (bronchial asthma; used alone): ineffective for the treatment thereof

SMILES: Cc1nc(-c2ccc(OCCCCCOc3ccc(C(=N)NO)cc3)cc2)c(C(C)C)s1 [Cpd. of Formula 1, N-hydroxy-4-{5-[4-(5-isopropyl-2-methyl-1,3-thiazol-4-yl)phenoxy]pentoxy}-benzamidine]
- Body weight gain, Asthma induction period after exposure ([1]; 100 mg/kg orally once a day): 0.34 ± 0.34
- Body weight gain, Over whole experimental period ([1]; 100 mg/kg orally once a day): 2.68 ± 0.52
- Body weight gain, Sensitization period ([1]; 100 mg/kg orally once a day): 3.50 ± 0.51
- Body weight gain, Asthma induction period after exposure ([1]; 200 mg/kg orally once a day): 0.36 ± 0.59
- Body weight gain, Over whole experimental period ([1]; 200 mg/kg orally once a day): 2.90 ± 0.40
- Body weight gain, Sensitization period ([1]; 200 mg/kg orally once a day): 3.08 ± 0.71
- Lung Absolute Wt. ([2]; 100 mg/kg orally once a day): 0.128 ± 0.007 ## g
- Lung Relative Wt. ([2]; 100 mg/kg orally once a day): 0.697 ± 0.030 ## %
- Lung Absolute Wt. ([2]; 200 mg/kg orally once a day): 0.125 ± 0.008 # g
- Lung Relative Wt. ([2]; 200 mg/kg orally once a day): 0.682 ± 0.030 ## %
- Total leukocytes in blood ([3]; 100 mg/kg orally once a day): 10.68 ± 1.76 ## ×10^3/1 mm^3
- Basophils in blood ([3]; 100 mg/kg orally once a day): 0.10 ± 0.20%
- Eosinophils in blood ([3]; 100 mg/kg orally once a day): 49.60 ± 15.79 %
- Lymphocytes in blood ([3]; 100 mg/kg orally once a day): 41.70 ± 12.90 %
- Monocytes in blood ([3]; 100 mg/kg orally once a day): 3.70 ± 1.60%
- Neutrophils in blood ([3]; 100 mg/kg orally once a day): 4.90 ± 2.90 %
- Total leukocytes in blood ([3]; 200 mg/kg orally once a day): 10.44 ± 1.81 ## ×10^3/1 mm^3
- Basophils in blood ([3]; 200 mg/kg orally once a day): 0.00 ± 0.00%
- Eosinophils in blood ([3]; 200 mg/kg orally once a day): 36.90 ± 8.33 # %
- Lymphocytes in blood ([3]; 200 mg/kg orally once a day): 53.80 ± 5.50 # %
- Monocytes in blood ([3]; 200 mg/kg orally once a day): 4.40 ± 1.70 %
- Neutrophils in blood ([3]; 200 mg/kg orally once a day): 5.20 ± 2.00 %
- Basophils in bronchoalveolar lavage fluid ([4]; 100 mg/kg orally once a day): 0.50 ± 0.50%
- Epithelioids in bronchoalveolar lavage fluid ([4]; 100 mg/kg orally once a day): 21.00 ± 14.77%
- Lymphocytes in bronchoalveolar lavage fluid ([4]; 100 mg/kg orally once a day): 56.90 ± 15.04%
- Monocytes in bronchoalveolar lavage fluid ([4]; 100 mg/kg orally once a day): 3.10 ± 3.73%
- Neutrophils in bronchoalveolar lavage fluid ([4]; 100 mg/kg orally once a day): 17.50 ± 8.06 %
- eosinophils in bronchoalveolar lavage fluid ([4]; 100 mg/kg orally once a day): 4.30 ± 1.44 %
- Basophils in bronchoalveolar lavage fluid ([4]; 200 mg/kg orally once a day): 0.10 ± 0.22 %
- Epithelioids in bronchoalveolar lavage fluid ([4]; 200 mg/kg orally once a day): 15.50 ± 9.74%
- Lymphocytes in bronchoalveolar lavage fluid ([4]; 200 mg/kg orally once a day): 56.80 ± 22.52%
- Monocytes in bronchoalveolar lavage fluid ([4]; 200 mg/kg orally once a day): 3.50 ± 2.57%
- Neutrophils in bronchoalveolar lavage fluid ([4]; 200 mg/kg orally once a day): 13.90 ± 9.85%
- eosinophils in bronchoalveolar lavage fluid ([4]; 200 mg/kg orally once a day): 3.60 ± 2.88 %
- Alveolar Area (proportion of alveolar lumen in lung tissue) ([5]; 100 mg/kg orally once a day): 55.53 ± 4.26 # percentages
- Counts of goblet Cells Brochiole ([5]; 100 mg/kg orally once a day): 53.80 ± 11.73 ## counts per 1,000 cells
- Counts of goblet Cells Bronchus ([5]; 100 mg/kg orally once a day): 317.60 ± 75.46 # counts per 1,000 cells
- Wall Thick. Brochiole ([5]; 100 mg/kg orally once a day): 27.73 ± 4.68 ## μm
- Wall Thick. Bronchus ([5]; 100 mg/kg orally once a day): 60.92 ± 8.53 # μm
- Alveolar Area (proportion of alveolar lumen in lung tissue) ([5]; 200 mg/kg orally once a day): 61.62 ± 6.93 # percentages
- Counts of goblet Cells Brochiole ([5]; 200 mg/kg orally once a day): 42.80 ± 10.69 # counts per 1,000 cells
- Counts of goblet Cells Bronchus ([5]; 200 mg/kg orally once a day): 256.80 ± 71.58 # counts per 1,000 cells
- Wall Thick. Brochiole ([5]; 200 mg/kg orally once a day): 24.79 ± 3.03 # μm
- Wall Thick. Bronchus ([5]; 200 mg/kg orally once a day): 40.69 ± 5.37 # μm
- Inflammatory cell populations in tissues around the primary bronchiole and alveola and around bronchial epithelia (FIG. 1) ([5]; compared to the control group, 100 and 200 mg/kg, optical microscope): reduction of the inflammatory cell population in the tissues in a dose-dependent pattern
